Biological target: Nucleotide-binding oligomerization domain-containing protein 2 (Homo sapiens, UniProt Q9HC29)
Test: inhibition of NOD2 signaling – set 2, SAR follow-up (AID 2475)

Nucleotide-binding oligomerization domain-containing protein 2, sequence (Q9HC29 whole entry, the tested form may be a part): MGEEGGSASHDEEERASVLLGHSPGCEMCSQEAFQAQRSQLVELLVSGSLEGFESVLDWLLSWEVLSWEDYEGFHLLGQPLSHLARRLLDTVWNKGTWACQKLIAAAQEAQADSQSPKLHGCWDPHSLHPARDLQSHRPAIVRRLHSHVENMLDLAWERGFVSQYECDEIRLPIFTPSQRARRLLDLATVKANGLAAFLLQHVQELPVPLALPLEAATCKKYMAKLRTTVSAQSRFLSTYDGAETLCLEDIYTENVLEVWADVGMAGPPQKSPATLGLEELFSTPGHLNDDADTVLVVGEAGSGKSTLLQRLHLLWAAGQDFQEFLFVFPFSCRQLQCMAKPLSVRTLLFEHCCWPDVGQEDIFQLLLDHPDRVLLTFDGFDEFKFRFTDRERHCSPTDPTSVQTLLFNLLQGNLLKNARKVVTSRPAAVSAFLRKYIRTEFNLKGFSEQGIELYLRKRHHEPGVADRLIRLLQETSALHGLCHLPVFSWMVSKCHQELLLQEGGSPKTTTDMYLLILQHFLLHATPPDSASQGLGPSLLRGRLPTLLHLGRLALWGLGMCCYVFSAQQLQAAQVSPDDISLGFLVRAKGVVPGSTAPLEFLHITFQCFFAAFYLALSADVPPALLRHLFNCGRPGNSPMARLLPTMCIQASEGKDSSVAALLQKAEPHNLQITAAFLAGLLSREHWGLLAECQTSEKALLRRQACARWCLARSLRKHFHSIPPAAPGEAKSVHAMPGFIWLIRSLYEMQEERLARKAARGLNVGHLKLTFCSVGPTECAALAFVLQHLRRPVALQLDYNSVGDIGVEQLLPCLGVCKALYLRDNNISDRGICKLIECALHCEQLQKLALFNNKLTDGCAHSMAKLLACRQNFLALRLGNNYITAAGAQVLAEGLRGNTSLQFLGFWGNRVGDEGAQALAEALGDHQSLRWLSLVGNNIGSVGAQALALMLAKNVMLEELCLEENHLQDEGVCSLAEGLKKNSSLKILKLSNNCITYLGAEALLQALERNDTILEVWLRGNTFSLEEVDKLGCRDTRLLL

Compound: Cc1cc(SCC(=O)OCC(=O)C(C#N)c2nc3ccccc3[nH]2)c(C)cc1Br (configuration not stated)
- IC50: 5.19 µM

Compound: Cc1ccc(C)c(SCC(=O)OCC(=O)C(C#N)c2nc3ccccc3[nH]2)c1 (configuration not stated) [MLS000392255]
- IC50: 4.21 µM
